A word on the half-life: it is the time needed for the level to fall by half in the phase considered. A word on the bioavailability: it is dose-corrected exposure relative to a reference, in per cent. A higher bioavailability goes with much systemic uptake.

Read-outs that look alike come from different tables or passages of the source.

The conditions of data set [1]: injectable formulations (IV or IM or SC); cited from earlier work.
A short description of data set [2]: clinical. Conditions: human, plasma, po, absolute bioavailability, oral administration.
For data set [3] the following is noted: race (Caucasian vs African American) or BMI.
For data set [4] the following is noted: IV, cited from earlier work.

Regarding `Cl.Oc1ccc2c3c1OC1[C@@H](O)CC[C@@]4(O)[C@@H](C2)N(CC2CCC2)CC[C@]314` (stereo partly drawn) [nalbuphine, 17-(cyclobutylmethyl)-4,5α-epoxymorphinian-3, 6α, 14-triol, hydrochloride], the half-life in data set [1] is 2 to 3 h. Further, the bioavailability in data set [2] (non-elderly subjects) was 11%; in data set [2] (subjects aged older than 65 years) it was approximately 44%. Besides, the “effect on CL/F due to race or BMI” value in data set [3] is recorded as “no observable effect”. Besides, the volume of distribution result in data set [4] (across the age groups) is given as “comparable across the age groups”. The “elimination half-life (T½)” value in data set [4] (children between 1.5 and 8.5 yrs) is 0.9 h; in data set [4] (elderly subjects 65-90 yrs), 2.3 h; in data set [4] (young adults 23-32 yr of age), 1.96 h.
